From patent publication US9511341B2, “Method for preparing acetazolamide sodium powder” (SCI Pharmtech, Inc., priority 2013, dated 2016)

Legend:
[1] = Impurity D (hydrolysis product) in spray dried powder by USP HPLC method; assay type: physicochemical; details: air vs N2 as drying gas, judged by difference of impurity D
Procedure: In the developed spray drying process, the spray dryer was initiated in the preferred conditions (such as temperature and flow rate of the heated gas, and pneumatic pressure). In the meantime, an acetazolamide sodium solution was prepared by dispersing the acetazolamide powder into water in a flask inerted with N2 and then mixing the acetazolamide suspension with sodium hydroxide solution. After stirring for 15 min, an acetazolamide sodium solution was obtained and pumped into the spray dryer to proceed the drying process. During the drying process, the acetazolamide sodium solution was fed and atomized into mist by a two-fluid nozzle, and then the water was rapidly vaporized and accompanied with the nucleation of acetazolamide sodium particles in the gas flow of drying chamber. The formed particles were immediately carried into the cyclone, in which the separation of gas-solid was performed. The uncollected particles were recovered by the wet scrubber connected to the exit of cyclone. Finally, the acetazolamide sodium powder in the collector was examined by a halogen moisture analyzer and an analytical HPLC method specified in the current USP monograph of acetazolamide for injection.
In Example 2, the amount of impurity D in the acetazolamide free base was about 0.098-0.110 wt %. […]

[2] = cited from earlier work

Row | SMILES | Oxygen sensitivity during spray drying [1] | Solubility in water [2]
1 | CC(=O)Nc1nnc(S(N)(=O)=O)s1 [acetazolamide sodium powder, Acetazolamide sodium] | not oxygen-sensitive | easily dissolves in water
2 | CC(=O)Nc1nnc(S(N)(=O)=O)s1 [acetazolamide] | – | extremely low solubility in water
